Assay results reported in patent US4012284A (Societa' Farmaceutici Italia, S.p.A., priority 1962, dated 1977).
Where a name gives a salt, the structure may show the parent alone.

Experiment: Solubility
Type: physicochemical

**Q.** Which solubility (in benzene, aliphatic esters, ethyl ether) does the source give for `COc1cccc2c1C(=O)c1c(O)c3c(c(O)c1C2=O)C[C@@](O)(C(C)=O)C[C@@H]3O` [Daunomycinone, daunomycinone] here?
**A.** scarcely soluble

**Q.** And the solubility (in butanol, acetone)?
**A.** less soluble

**Q.** What about the solubility (in methanol, ethanol, chloroform) of the same molecule?
**A.** soluble

**Q.** And the solubility (in petroleum ether)?
**A.** insoluble

**Q.** What about the solubility in water of the same molecule?
**A.** insoluble

**Q.** Which results are given for `COc1cccc2c1C(=O)c1c(O)c3c(c(O)c1C2=O)C[C@@](O)(C(C)=O)C[C@@H]3O[C@H]1C[C@H](N)[C@H](O)[C@H](C)O1` [F.I. 1762 hydrochloride]?
**A.** solubility (in chloroform, acetone, benzol and non-polar solvents): insoluble; solubility (in methanol, aqueous alcohols): soluble; solubility in water: soluble

**Q.** With `COc1cccc2c1C(=O)c1c(O)c3c(c(O)c1C2=O)C[C@@](O)(C(C)=O)C[C@@H]3O[C@H]1C[C@H](N)[C@H](O)[C@H](C)O1` [F.I. 1762 picrate] as the molecule, how does the solubility (in lower aliphatic alcohols, halogenated hydrocarbon (chloroform), ketones (acetone, methylethylketone)) read?
**A.** soluble
